≈ marks a conversion by molar mass, not a printed value.
Tests used:
[1] = Long-term and accelerated stability test; format: physicochemical
From the text: (§1) Purity test: HPLC method (Chinese Pharmacopoeia 2015, Volume IV, general principles 0512)
(§2) Chromatographic column: octadecyl silane bonded silica gel as filler
(§3) Mobile phase A: 0.02 mol/L phosphate buffer (pH 3.0)-methanol-acetonitrile
(§4) Mobile phase B: methanol-acetonitrile-water
(§5) Detection wavelength: 215 nm.
(§6) Elution condition: gradient elution
The Crystal Form D of the compound of formula I was packed with inner bag (pharmaceutical low density polyethylene bag) and outer bag (pharmaceutical polyester/aluminum/polyethylene composite film bag), placed under the following stability testing conditions for stability tests.

[2] = Thermogravimetric Analysis (TGA); format: physicochemical; details: heating rate 10K/min, N2 purge, 35-500° C.
Protocol: “Thermogravimetric Analysis (TGA)” is a common method for determining the thermal stability of compounds. The TGA curve can be measured, for example, on a Mettler Toledo TGA1 instrument. The error of TGA may be within about ±0.5 wt %. The term “substantially identical” means that such error variations are considered. Exemplary test conditions are: temperature range is 35-500° C., heating rate is 10 K/min, and purge gas is nitrogen (99.99%).
TGA is collected on Mettler Toledo TGA1 Thermogravimetric Analyzer, purge gas is N2 (99.99%), 100 ml/min; heating rate: 10K/min; temperature range: 35-500° C.
In the curve, the sample began to decompose at about 230° C. and no weight loss was found before decomposition.

[3] = Pharmacokinetic study in dogs; format: in vivo; details: administered to dogs
[4] = Pharmacokinetic study in mice; format: in vivo; details: administered to mice
[5] = High temperature stability test; format: physicochemical; details: 60° C.; for Purity Change: sealed glass bottle
From the text: (§7) In this Experimental Example, high temperature, high humidity tests were used to study the chemical stability of the crystal form according to the invention.
as §1, §2, §3, §4, §5, §6
The Crystal Form D of the compound of formula I was placed in a sealed and clean glass bottle and placed in 60° C. constant temperature oven. Samples were taken 10 day/30 day respectively for impurity content determination.
(§8) Note: Purity Change=(Difference of sample purity at day 0 and sample purity after a certain period)/Sample purity at day 0×100%.

[6] = High humidity stability test; format: physicochemical; details: RH 92.5%; for Weight loss on drying / Purity Change: room temperature; for Purity Change: open dish
From the text: as §7, §1, §2, §3, §4, §5, §6
Weight loss on drying assay: Chinese Pharmacopoeia 2015, Volume IV, general principles 0831
as §8
The Crystal Form D of the compound of formula I was spread in open petri dish with thickness ≤5 mm, at room temperature, in constant temperature incubator of relative humidity (RH) 92.5%. Samples were taken 10 day/30 day for impurity content determination.

[7] = Solubility test (HPLC external standard method); format: physicochemical
Protocol: In this Experimental Example, the solubility of two crystal form in different pH of simulated human gastric juice were tested to study the solubility of the crystal forms.
Solubility test: HPLC external standard method
as §2
Mobile phase: phosphate buffer (pH3.5):methanol:acetonitrile=2:9:9 (volume ratio)
Detection wavelength: 215 nm
Excess amount of Crystal Form D and Crystal Form Y were placed in tubes with plug, to which were added 10 ml of water (purified water), hydrochloric acid solution of pH 1.2, hydrochloric acid solution of pH 2.0, acetate buffer of pH 4.0, phosphate buffers of pH 4.5, 5.0, 6.8, 8.0, respectively, and vibrated on 37° C. water bath, then filtered. The subsequent filtrate was subjected to HPLC assay.
The preparations of various pH buffers can be referred to “Guideline for Dissolution Test of Normal Oral Solid Formulation” issued by Center for Drug Evaluation of China Food and Drug Administration for dissolution medium, and are detailed as follows:
The hydrochloric acid solution of pH 1.2 is prepared by diluting 7.65 ml of hydrochloric acid with water to 1000 ml and mixing well.
The hydrochloric acid solution of pH 2.0 is prepared by diluting 1.17 ml of hydrochloric acid with water to 1000 ml and mixing well.
The acetate buffer of pH 4.0 is prepared by diluting mixture of 1.22 g of sodium acetate with 20.5 ml of 2 mol/L acetic acid solution with water to 1000 ml and mixing well. The 2 mol/L acetic acid solution is prepared by diluting 114 mL of glacial acetic acid with water to 1000 ml.
The phosphate buffers of pH 4.5, 5.0, 6.8, 8.0 are prepared by adjusting pH of 0.2 mol/L monopotassium phosphate solution with 0.2 mol/L sodium hydroxide solution to pH 4.5, 5.0, 6.8, 8.0, respectively. The 0.2 mol/L monopotassium phosphate solution is prepared by dissolving 27.22 g of monopotassium phosphate in water and diluting to 1000 mL. The 0.2 mol/L sodium hydroxide solution is prepared by dissolving 8.00 g of sodium hydroxide in water and diluting to 1000 mL.

[8] = Pharmacokinetic study in monkeys; format: in vivo; details: administered to monkeys
[9] = high temperature condition, up to 30 day
[10] = high humidity condition, up to 30 day
[11] = hydrochloric acid solution pH 1.2, 37° C.
[12] = hydrochloric acid solution pH 2.0, 37° C.
[13] = phosphate buffer pH 4.5, 37° C.
[14] = phosphate buffer pH 5.0, 37° C.
[15] = phosphate buffer pH 6.8, 37° C.
[16] = phosphate buffer pH 8.0, 37° C.

CCCCCCO[C@@H](C)c1cccc(-c2csc(NC(=O)c3cc(Cl)c(/C=C(\C)C(=O)O)c(Cl)c3)n2)c1OC [Crystal Form D, 4-phenylthiazole derivative]
Change in purity or crystal form (in words) ([1]; 6 month or more under long-term and accelerated conditions): no change in purity or crystal form | Chemical purity ([1]; Accelerated (40° C. ± 2° C./RH75% ± 5%), 0 day): 99.83% | Chemical purity ([1]; Accelerated (40° C. ± 2° C./RH75% ± 5%), 6 month): 99.83% | Chemical purity ([1]; Long-term (25° C. ± 2° C./RH60% ± 5%), 0 day): 99.83% | Chemical purity ([1]; Long-term (25° C. ± 2° C./RH60% ± 5%), 6 month): 99.83% | Chemical purity ([1]; Long-term (30° C. ± 2° C./RH65% ± 5%), 0 day): 99.83% | Chemical purity ([1]; Long-term (30° C. ± 2° C./RH65% ± 5%), 6 month): 99.83% | Temperature at which the sample began to decompose (TGA) [2]: about 230 °C | Pharmacokinetic properties [3]: good pharmacokinetic properties | Pharmacokinetic properties [4]: good pharmacokinetic properties | Purity Change ([5]; 10 day): 0.04% | Purity Change ([5]; 30 day): 0.03% | Change in crystal form (XRPD) [5, 9]: no change in crystal form | Change in purity (in words) [5, 9]: did not show obvious change in purity | Weight loss on drying ([6]; 0 day): 0.31% | Weight loss on drying ([6]; 10 day): 0.35% | Weight loss on drying ([6]; 30 day): 0.36% | Purity Change ([6]; 10 day): 0.05% | Purity Change ([6]; 30 day): 0% | Change in crystal form (XRPD) [6, 10]: no change in crystal form | Change in purity (in words) [6, 10]: did not show obvious change in purity | Change in weight loss on drying (in words) [6, 10]: little change in weight loss on drying | Solubility ([7]; acetate buffer pH 4.0, 37° C.): 10.6478 µg/mL (≈ 18 µM) | Solubility [7, 11]: 19.1353 µg/mL (≈ 32.3 µM) | Solubility [7, 12]: 14.5872 µg/mL (≈ 24.7 µM) | Solubility [7, 13]: 11.4829 µg/mL (≈ 19.4 µM) | Solubility [7, 14]: 13.8229 µg/mL (≈ 23.4 µM) | Solubility [7, 15]: 36.0017 µg/mL (≈ 60.9 µM) | Solubility [7, 16]: 110.5589 µg/mL (≈ 187 µM) | Solubility compared with Crystal Form Y ([7]; simulated human gastric juice with various pH): significantly better than that of Crystal Form Y | Solubility ([7]; water (purified water), 37° C.): 41.3607 µg/mL (≈ 69.9 µM) | Pharmacokinetic properties [8]: good pharmacokinetic properties

CCCCCCO[C@@H](C)c1cccc(-c2csc(NC(=O)c3cc(Cl)c(/C=C(\C)C(=O)O)c(Cl)c3)n2)c1OC [Crystal Form Y, 4-phenylthiazole derivative]
Solubility ([7]; acetate buffer pH 4.0, 37° C.): 0.4327 µg/mL (≈ 0.731 µM) | Solubility [7, 11]: 0.7616 µg/mL (≈ 1.29 µM) | Solubility [7, 12]: 0.4915 µg/mL (≈ 0.831 µM) | Solubility [7, 13]: 0.5623 µg/mL (≈ 0.951 µM) | Solubility [7, 14]: 0.6993 µg/mL (≈ 1.18 µM) | Solubility [7, 15]: 3.2046 µg/mL (≈ 5.42 µM) | Solubility [7, 16]: 43.0713 µg/mL (≈ 72.8 µM) | Solubility ([7]; water (purified water), 37° C.): 5.2325 µg/mL (≈ 8.85 µM)
